Test results: ChEMBL document CHEMBL1687731, “Reverse transcriptase inhibitors as potential colorectal microbicides” (Antimicrob Agents Chemother, 2009)
Active and inactive are the calls of the source. No cut-off for these calls is given here.

Columns and labels:
[1] = system: Human immunodeficiency virus 1; assay: Antiviral activity against R5 tropic HIV1 R8.BaL infected in human TZM-b1 cells after 2 hrs by luciferase assay; type: functional, organism-based; conditions: Human immunodeficiency virus 1, R8.BaL, TZM-b1, 2 h
[2] = system: Human immunodeficiency virus 1; assay: Antiviral activity against X4 tropic HIV1 NL4.3 infected in human TZM-b1 cells after 2 hrs by luciferase assay; type: functional, organism-based; conditions: Human immunodeficiency virus 1, NL4.3, TZM-b1, 2 h
[3] = system: Human immunodeficiency virus 1; assay: Ratio of IC50 for wild type HIV1 to IC50 for HIV1 A17 harboring reverse transcriptase K103N, Y181C mutant; type: functional
[4] = system: Human immunodeficiency virus 1; assay: Antiviral activity against X4 tropic HIV1 3B infected in human TZM-b1 cells after 2 hrs by luciferase assay; type: functional, organism-based; conditions: Human immunodeficiency virus 1, 3B, TZM-b1, 2 h
PBMC = assay: Cytotoxicity against human PBMC by MTT assay; type: cell-based
[5] = system: Human immunodeficiency virus 1; assay: Antiviral activity against HIV1 A17 harboring reverse transcriptase K103N, Y181C mutant infected in human TZM-b1 cells after 2 hrs by luciferase assays; type: functional, organism-based
[6] = system: Human immunodeficiency virus 1; assay: Antiviral activity against X4 tropic HIV1 RF infected in human TZM-b1 cells after 2 hrs by luciferase assay; type: functional, organism-based; conditions: Human immunodeficiency virus 1, RF, TZM-b1, 2 h
[7] = system: Human immunodeficiency virus 1; assay: Antiviral activity against HIV1 isolate 71361-1 harboring reverse transcriptase K65R mutant infected in human TZM-b1 cells after 2 hrs by luciferase assays; type: functional, organism-based
[8] = system: Human immunodeficiency virus 1; assay: Antiviral activity against X4 tropic HIV1 RF infected in human PBMC assessed as inhibition of p24 antigen production after 2 hrs by ELISA; type: functional, organism-based; conditions: Human immunodeficiency virus 1, RF
[9] = Cytotoxicity against human TZM-bl cells by MTT assay; type: cell-based
[10] = system: Human immunodeficiency virus 1; assay: Antiviral activity against R5 tropic HIV1 YU.2 infected in human TZM-b1 cells after 2 hrs by luciferase assay; type: functional, organism-based; conditions: Human immunodeficiency virus 1, YU.2, TZM-b1, 2 h
[11] = system: Human immunodeficiency virus 1; assay: Antiviral activity against X4 tropic HIV1 NL4.3 infected in human PBMC assessed as inhibition of p24 antigen production after 2 hrs by ELISA; type: functional, organism-based; conditions: Human immunodeficiency virus 1, NL4.3, 2 h
[12] = system: Human immunodeficiency virus 1; assay: Antiviral activity against R5 tropic HIV1 BaL infected in human TZM-b1 cells after 2 hrs by luciferase assay; type: functional, organism-based; conditions: Human immunodeficiency virus 1, BaL, TZM-b1, 2 h
[13] = system: Human immunodeficiency virus 1; assay: Antiviral activity against R5 tropic HIV1 R8.BaL infected in human PBMC assessed as inhibition of p24 antigen production after 2 hrs by ELISA; type: functional, organism-based; conditions: Human immunodeficiency virus 1, R8.BaL
[14] = system: Human immunodeficiency virus 1; assay: Antiviral activity against R5 tropic HIV1 YU.2 infected in human PBMC assessed as inhibition of p24 antigen production after 2 hrs by ELISA; type: functional, organism-based; conditions: Human immunodeficiency virus 1, YU.2, 2 h
[15] = system: Human immunodeficiency virus 1; assay: Antiviral activity against HIV1 isolate 8415-2 harboring reverse transcriptase K65R mutant co-expressing M184V mutant infected in human TZM-b1 cells after 2 hrs by luciferase assays; type: functional, organism-based; conditions: Human immunodeficiency virus 1, isolate 8415-2, TZM-b1, 2 h

Cc1cc(C)c(Nc2ccnc(Nc3ccc(C#N)cc3)n2)c(C)c1 [DAPIVIRINE]
IC50 [1]: 0.19 nM | IC50 [2]: 0.37 nM | Ratio IC50 [3]: 17 | IC50 [4]: 0.53 nM | Activity (PBMC): Non-toxic | IC50 ([5]; Human immunodeficiency virus 1, A17, TZM-b1, 2 h): 8.34 nM | IC50 [6]: 0.84 nM | Activity [7]: inactive | IC50 [8]: 1.48 nM | Activity [9]: Non-toxic | IC50 [10]: 0.15 nM | IC50 [11]: 1.15 nM | IC50 [12]: 0.8 nM | IC50 [13]: 1.09 nM | IC50 [14]: 1.11 nM

C[C@H](Cn1cnc2c(N)ncnc21)OCP(=O)(O)O [TENOFOVIR ANHYDROUS]
IC50 [1]: 4590 nM | IC50 [2]: 6690 nM | IC50 [4]: 2300 nM | Activity (PBMC): Non-toxic | IC50 [15]: 820 nM | IC50 [6]: 4030 nM | IC50 ([7]; Human immunodeficiency virus 1, isolate 71361-1, TZM-b1, 2 h): > 30000 nM | IC50 [8]: 1600 nM | Activity [9]: Non-toxic | IC50 [10]: 3340 nM | IC50 [11]: 1400 nM | IC50 [12]: 2520 nM | IC50 [13]: 1010 nM | IC50 [14]: 884 nM

CC(C)=CCOc1cc(NC(=S)c2ccoc2C)ccc1Cl [UC 781]
IC50 [1]: 5.86 nM | IC50 [2]: 10.2 nM | IC50 [4]: 7.99 nM | Activity (PBMC): Non-toxic | Activity [5]: inactive | IC50 [6]: 6.01 nM | IC50 [8]: 9.2 nM | Activity [9]: Non-toxic | IC50 [10]: 5.87 nM | IC50 [11]: 17.6 nM | IC50 [12]: 9.34 nM | IC50 [13]: 10.2 nM | IC50 [14]: 11.2 nM
